Ends that are not written are not given here.
system: Jurkat cells; assay: Cell viability preservation in vitro: cell confluence of Jurkat cells after 24-hour incubation with or without recombinant His-tagged FasL and anti-His antibody; assay type: cell-based; conditions: Incucyte / Vi-CELL
Method: Compounds (oligopeptides) of the present disclosure were assayed for their ability to effect cell confluence following a 24-hour incubation. Jurkat cells were incubated for 24 hours with varying concentrations of compound (i.e., 200, 66.7, 22.2, 7.4, 2.5, 0.8, 0.3, and 0.1) and with or without recombinant His-tagged FasL along with an anti-His antibody. After the 24-hour incubation, cell confluence was quantified using an S3 Incucyte Imaging System (Sartorius) and a Vi-CELL XR Cell Viability Analyzer (Beckman Coulter) and compared to controls (cells incubated in the absence of compound and cells incubated with a known Fas inhibitor).

Substance | Activity (lowest concentration that prevented loss of cell confluency)
HHIYLGAVNYIY-NH2 [Compound A, reference compound] | A (cell protection at x < 1.0 μM)
NH2-HHIYLGSSSSNYIY-C(O)NH2 (H-HHIYLGSSSSNYIY-NH2) [Compound 8] | B (cell protection at 1.0 < x < 10.0 μM)
NH2-HKIYLGAVNYIY-C(O)NH2 (H-HKIYLGAVNYIY-NH2) [Compound 11] | B (cell protection at 1.0 < x < 10.0 μM)
NH2-KKIYLGAVNYIY-C(O)NH2 (H-KKIYLGAVNYIY-NH2) [Compound 9] | B (cell protection at 1.0 < x < 10.0 μM)
NH2-HHIAAGAVNYIY-C(O)NH2 (H-HHIAAGAVNYIY-NH2) [Compound 6] | B (cell protection at 1.0 < x < 10.0 μM)
NH2-HHIYLGGGGGNYIY-C(O)NH2 (H-HHIYLGGGGGNYIY-NH2) [Compound 7] | B (cell protection at 1.0 < x < 10.0 μM)
NH2-KHIYLGAVNYIY-C(O)NH2 (H-KHIYLGAVNYIY-NH2) [Compound 10] | A (cell protection at x < 1.0 μM)

system: photoreceptor cells; assay: not given; conditions: cell culture experiments; separation of the retinal and retinal pigment epithelium; cited from earlier work

Substance | photoreceptor protection
H^60HIYLGAVNYIY^71 (HHIYLGAVNYIY) [Met-12] | photoreceptor protective

system: not given; assay: not given; conditions: apparently clear solution in 20 mM citrate buffer pH 2.8, in vitro and in vivo assays; cited from earlier work

Substance | loss in activity
H^60HIYLGAVNYIY^71 (HHIYLGAVNYIY) [Met-12] | at least a fivefold loss in activity

Source: patent publication US20260049106A1, “PEPTIDE COMPOSITIONS AND METHODS OF USE” (ONL Therapeutics, Inc., priority 2022, published 2026)
